Each block holds one molecule with its values, some of them ahead of it.
Key:
[1] = biological target: T1, ALDH9A1 (Homo sapiens, UniProt P49189); assay: inhibition of TMABAL oxidation by purified enzyme (NADH formation); preincubation and dialysis; also slow substrate; assay type: biochemical
T1 construct: recombinant ALDH9A1

[2] = biological target: T1, ALDH9A1; assay: MST (RED-tris-NTA labelled enzyme); also NADH-formation activity assay; assay type: binding
[3] = biological target: T1, ALDH9A1; assay: MST; also inhibition of TMABAL and ABAL oxidation at […]; assay type: binding

T1 sequence (P49189 whole entry): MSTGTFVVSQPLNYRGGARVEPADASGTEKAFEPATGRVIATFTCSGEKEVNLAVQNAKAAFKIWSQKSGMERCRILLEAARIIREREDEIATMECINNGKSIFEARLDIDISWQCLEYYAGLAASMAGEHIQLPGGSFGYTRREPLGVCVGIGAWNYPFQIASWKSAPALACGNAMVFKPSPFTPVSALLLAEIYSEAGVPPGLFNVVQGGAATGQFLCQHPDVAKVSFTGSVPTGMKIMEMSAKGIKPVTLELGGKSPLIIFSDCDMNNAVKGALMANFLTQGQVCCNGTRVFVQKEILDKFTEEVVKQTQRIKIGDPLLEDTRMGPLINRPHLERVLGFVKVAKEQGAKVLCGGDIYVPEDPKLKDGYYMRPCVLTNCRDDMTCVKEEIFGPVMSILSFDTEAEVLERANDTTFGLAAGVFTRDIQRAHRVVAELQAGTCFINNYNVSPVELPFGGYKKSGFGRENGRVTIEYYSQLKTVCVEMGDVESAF

IC50 [1]: ~10 µM
Compound: CC(C)=CCC/C(C)=C/CC/C(C)=C/C=O [FCHO, farnesal]

Kd [2]: 11 µM
Compound: C[N+](C)(C)CCCC=O [TMABAL]

Kd [3]: 1.2 mM
Compound: C[N+](C)(C)NCCC(=O)[O-] [meldonium, 3-(2,2,2-trimethylhydrazinium) propionate]
